# Results published in US11365196B2, “FGFR inhibitor and application thereof” (Betta Pharmaceuticals Co., Ltd., priority 2017, dated 2022).
# Read-outs that look alike come from different tables or passages of the source.
# How the values were obtained:
# NCI-H1581 cells = experiment: Cell proliferation assay on NCI-H1581 (Table 7); type: cell-based, human
# Excerpt: Test method: adding the appropriate volume of whole medium and the cells was suspended.
# FGFR1 = FGFR1 (Homo sapiens (Human), UniProt P11362); experiment: Kinase assay Method 1, mobility shift assay
# FGFR1, sequence (P11362 22-822): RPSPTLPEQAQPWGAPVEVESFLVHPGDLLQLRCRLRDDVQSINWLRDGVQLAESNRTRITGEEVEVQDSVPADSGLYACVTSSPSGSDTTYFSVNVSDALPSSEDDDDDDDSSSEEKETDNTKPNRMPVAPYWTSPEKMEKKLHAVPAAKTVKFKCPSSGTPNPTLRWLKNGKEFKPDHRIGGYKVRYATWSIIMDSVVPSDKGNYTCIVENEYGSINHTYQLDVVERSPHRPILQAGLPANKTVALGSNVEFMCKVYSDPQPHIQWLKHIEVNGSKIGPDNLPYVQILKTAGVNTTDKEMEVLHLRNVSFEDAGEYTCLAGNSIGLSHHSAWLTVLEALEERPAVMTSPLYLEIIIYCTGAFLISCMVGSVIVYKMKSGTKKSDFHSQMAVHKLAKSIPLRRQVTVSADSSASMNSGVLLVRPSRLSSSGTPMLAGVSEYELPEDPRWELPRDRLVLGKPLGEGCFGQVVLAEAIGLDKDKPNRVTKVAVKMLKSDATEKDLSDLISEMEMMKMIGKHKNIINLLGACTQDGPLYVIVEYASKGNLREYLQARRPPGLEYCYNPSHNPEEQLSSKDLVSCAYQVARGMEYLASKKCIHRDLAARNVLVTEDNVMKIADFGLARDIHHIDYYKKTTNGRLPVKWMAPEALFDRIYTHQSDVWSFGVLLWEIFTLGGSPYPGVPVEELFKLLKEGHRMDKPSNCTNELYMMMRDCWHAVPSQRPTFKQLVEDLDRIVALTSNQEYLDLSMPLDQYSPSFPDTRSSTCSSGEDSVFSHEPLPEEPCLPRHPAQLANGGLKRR
# [1] = Homo sapiens, NCI-H1581, CellTiter 96 AQueous (144 hrs) or CellTiter Glo (96 hrs), class symbols, read-out: IC50(nM) value of compounds on NCI-H1581 cells
# [2] = read-out: IC50(nM) value of compounds FGFR1, mobility shift assay, ATP at Km, class symbols
# [3] = Homo sapiens, NCI-H1581, read-out: IC50(nM) value of compounds on NCI-H1581 cells
IC50 (NCI-H1581 cells; [1]) [nM],Structure (SMILES),other results
10 to 100,"COc1cc(OC)c(Cl)c(-c2cc3cnc(Nc4ccc(N5CC[N+]6(O)CCC[C@@H]6C5)cc4)nc3n3cnnc23)c1 (stereo partly drawn) [Compound 100, (8aR)-2-(4-((6-(2-chloro-3,5-dimethoxyphenyl)-[1,2,4]triazolo[4′,3′:1,6]pyrido[2,3-d]pyrimidin-2-yl)amino)phenyl)octahydro-5H-pyrrolo[1,2-a]pyrazine 5-oxide]",IC50 (FGFR1; [2]): < 1 nM
,"COc1cc(OC)c(Cl)c(-c2cc3cnc(Nc4ccc(CN5CCOCC5)cc4)nc3n3cnnc23)c1 [Compound 45, 6-(2-chloro-3,5-dimethoxyphenyl)-N-(4-(morpholinomethyl)phenyl)-[1,2,4]triazolo[4′,3′:1,6]pyrido[2,3-d]pyrimidin-2-amine]",IC50 (NCI-H1581 cells; [3]): 0.9 nM
1 to 10,"COc1cc(OC)c(Cl)c(-c2cc3cnc(Nc4ccc(N5CCN(CCO)CC5)cc4)nc3n3cnnc23)c1 [Compound 32, 2-(4-(4-((6-(2-chloro-3,5-dimethoxyphenyl)-[1,2,4]triazolo[4′,3′:1,6]pyrido[2,3-d]pyrimidin-2-yl)amino)phenyl)piperazin-1-yl)ethan-1-ol]",IC50 (FGFR1; [2]): < 1 nM
1 to 10,"C=CC(=O)N1CCN(CCCc2nc3c(-c4c(Cl)c(OC)cc(OC)c4Cl)cc4cnc(NCC(F)(F)F)nc4n3n2)CC1 [Compound 137, 1-(4-(3-(4-(2,6-dichloro-3,5-dimethoxyphenyl)-8-((2,2,2-trifluoroethyl)amino)-[1,2,4]triazolo[1′,5′:1,6]pyrido[2,3-d]pyrimidin-2-yl)propyl)piperazin-1-yl)prop-2-en-1-one]",
10 to 100,"C=CC(=O)N1C[C@@H](C)N(CCCc2nc3c(-c4c(Cl)c(OC)cc(OC)c4Cl)cc4cnc(NC)nc4n3n2)[C@@H](C)C1 [Compound 131, 1-((3S,5R)-4-(3-(4-(2,6-dichloro-3,5-dimethoxyphenyl)-8-(methylamino)-[1,2,4]triazolo[1′,5′:1,6]pyrido[2,3-d]pyrimidin-2-yl)propyl)-3,5-dimethylpiperazin-1-yl)prop-2-en-1-one]",
> 100,"C=CC(=O)N1CCN(CCc2nnc3c(-c4cc(OC)cc(OC)c4Cl)cc4cnc(NC)nc4n23)CC1 [Compound 114, 1-(4-(2-(6-(2-chloro-3,5-dimethoxyphenyl)-2-(methylamino)-[1,2,4]triazolo[4′,3′:1,6]pyrido[2,3-d]pyrimidin-9-yl)ethyl)piperazin-1-yl)prop-2-en-1-one]",IC50 (FGFR1; [2]): > 100 nM
> 100,"COc1cc(OC)c(Cl)c(-c2cc3cnc(Nc4ccc(N5CC(=O)N6CCC[C@@H]6C5)cc4)nc3n3cnnc23)c1 [Compound 40, (R)-2-(4-((6-(2-chloro-3,5-dimethoxyphenyl)-[1,2,4]triazolo[4′,3′:1,6]pyrido[2,3-d]pyrimidin-2-yl)amino)phenyl)hexahydropyrrolo[1,2-a]pyrazin-4(1H)-one]",
,"COc1cc(OC)c(Cl)c(-c2cc3cnc(Nc4ccc(OCCN5CCCC5)cc4)nc3n3cnnc23)c1 [Compound 28, 6-(2-chloro-3,5-dimethoxyphenyl)-N-(4-(2-(pyrrolidin-1-yl)ethoxy)phenyl)-[1,2,4]triazolo[4′,3′:1,6]pyrido[2,3-d]pyrimidin-2-amine]",IC50 (NCI-H1581 cells; [3]): 2.9 nM
> 100,"Cc1nc2ccc(-c3cc4cnc(Nc5ccc(N6CCOCC6)cc5)nc4n4cnnc34)c(Cl)c2[nH]1 [Compound 83, 6-(7-chloro-2-methyl-1H-benzo[d]imidazol-6-yl)-N-(4-morpholinophenyl)-[1,2,4]triazolo[4′,3′:1,6]pyrido[2,3-d]pyrimidin-2-amine]",
,COc1cc(OC)c(Cl)c(-c2cc3cnc(Nc4ccc(N(C)CCN(C)C)cc4)nc3n3cnnc23)c1 [Compound 21],"IC50 (NCI-H1581 cells; CellTiter 96 AQueous (144 hrs) or CellTiter Glo (96 hrs), class symbols, read-out: IC50(nM) value of compounds on NCI-H1581 cells): 1 to 10 nM; IC50 (FGFR1; [2]): < 1 nM"
,"CCN1CCC(c2ccc(Nc3ncc4cc(-c5cc6[nH]c(C)nc6cc5Cl)c5nncn5c4n3)cc2)CC1 [Compound 79, 6-(5-chloro-2-methyl-1H-benzo[d]imidazol-6-yl)-N-(4-(1-ethylpiperidin-4-yl)phenyl)-[1,2,4]triazolo[4′,3′:1,6]pyrido[2,3-d]pyrimidin-2-amine]",IC50 (NCI-H1581 cells; [3]): 11.5 nM
< 1,"COc1cc(OC)c(Cl)c(-c2cc3cnc(Nc4ccc(N5CCN(C)C(C)(C)C5)cc4)nc3n3cnnc23)c1 [Compound 26, 6-(2-chloro-3,5-dimethoxyphenyl)-N-(4-(3,3,4-trimethylpiperazin-1-yl)phenyl)-[1,2,4]triazolo[4′,3′:1,6]pyrido[2,3-d]pyrimidin-2-amine]",IC50 (FGFR1; [2]): < 1 nM
10 to 100,"C=CC(=O)N1CCN(CCc2nc3c(-c4cc(OC)cc(OC)c4Cl)cc4cnc(NC)nc4n3n2)CC1 [Compound 116, 1-(4-(2-(4-(2-chloro-3,5-dimethoxyphenyl)-8-(methylamino)-[1,2,4]triazolo[1′,5′:1,6]pyrido[2,3-d]pyrimidin-2-yl)ethyl)piperazin-1-yl)prop-2-en-1-one]",
< 1,"CNC1CCN(c2ccc(Nc3ncc4cc(-c5cc(OC)cc(OC)c5Cl)c5nncn5c4n3)cc2)CC1 [Compound 49, 6-(2-chloro-3,5-dimethoxyphenyl)-N-(4-(4-(methylamino)piperidin-1-yl)phenyl)-[1,2,4]triazolo[4′,3′:1,6]pyrido[2,3-d]pyrimidin-2-amine]",
,"COc1cc(OC)c(Cl)c(-c2cc3cnc(Nc4ccc(C(=O)N5C[C@@H](C)N[C@@H](C)C5)cc4)nc3n3cnnc23)c1 [Compound 59, (4-((6-(2-chloro-3,5-dimethoxyphenyl)-[1,2,4]triazolo[4′,3′:1,6]pyrido[2,3-d]pyrimidin-2-yl)amino)phenyl)((3 S,5R)-3,5-dimethylpiperazin-1-yl)methanone]",IC50 (NCI-H1581 cells; [3]): 1.8 nM
1 to 10,"COc1cc(OC)c(Cl)c(-c2cc3cnc(Nc4ccc(N5CCN(C6CCN(C)CC6)CC5)cc4)nc3n3cnnc23)c1 [Compound 22, 6-(2-chloro-3,5-dimethoxyphenyl)-N-(4-(4-(1-methylpiperidin-4-yl)piperazin-1-yl)phenyl)-[1,2,4]triazolo[4′,3′:1,6]pyrido[2,3-d]pyrimidin-2-amine]",
1 to 10,"COc1cc(OC)c(Cl)c(-c2cc3cnc(Nc4ccc(N5C[C@@H](C)N[C@@H](C)C5)c(OC)c4)nc3n3cnnc23)c1 [Compound 55, 6-(2-chloro-3,5-dimethoxyphenyl)-N-(4-((3 S,5R)-3,5-dimethylpiperazin-1-yl)-3-methoxyphenyl)-[1,2,4]triazolo[4′,3′:1,6]pyrido[2,3-d]pyrimidin-2-amine]",
> 100,"CNc1ncc2cc(-c3c(Cl)c(OC)cc(OC)c3Cl)c3nc(CCCN4CCN(C(=O)C(C#N)=CC(C)(C)C)CC4)nn3c2n1 [Compound 148, 2-(4-(3-(4-(2,6-dichloro-3,5-dimethoxyphenyl)-8-(methylamino)-[1,2,4]triazolo[1′,5′:1,6]pyrido[2,3-d]pyrimidin-2-yl)propyl)piperazine-1-carbonyl)-4,4-dimethylpent-2-enenitrile]",
1 to 10,"COc1cc(OC)c(Cl)c(-c2cc3cnc(Nc4ccc(OCCN5CCOCC5)cc4)nc3n3cnnc23)c1 [Compound 33, 6-(2-chloro-3,5-dimethoxyphenyl)-N-(4-(2-morpholinoethoxy)phenyl)-[1,2,4]triazolo[4′,3′:1,6]pyrido[2,3-d]pyrimidin-2-amine]",
,"COc1cc(OC)c(Cl)c(-c2cc3cnc(Nc4ccc(N5CCN6CCC[C@H]6C5)cc4)nc3n3cnnc23)c1 [Compound 25, (S)-6-(2-chloro-3,5-dimethoxyphenyl)-N-(4-(hexahydropyrrolo[1,2-a]pyrazin-2(1H)-yl)phenyl)-[1,2,4]triazolo[4′,3′:1,6]pyrido[2,3-d]pyrimidin-2-amine]",IC50 (NCI-H1581 cells; [3]): 1 to 10 nM
< 1,"COc1cc(OC)c(Cl)c(-c2cc3cnc(Nc4ccc(C(=O)N5C[C@@H](C)N[C@@H](C)C5)cc4)nc3n3cnnc23)c1Cl [Compound 60, (4-((6-(2,6-dichloro-3,5-dimethoxyphenyl)-[1,2,4]triazolo[4′,3′:1,6]pyrido[2,3-d]pyrimidin-2-yl)amino)phenyl)((3S,5R)-3,5-dimethylpiperazin-1-yl)methanone]",
1 to 10,"COc1cc(OC)c(Cl)c(-c2cc3cnc(Nc4ccc(C5CCN(C)CC5)cc4)nc3n3cnnc23)c1 [Compound 37, 6-(2-chloro-3,5-dimethoxyphenyl)-N-(4-(1-methylpiperidin-4-yl)phenyl)-[1,2,4]triazolo[4′,3′:1,6]pyrido[2,3-d]pyrimidin-2-amine]",
1 to 10,"C=CC(=O)N1CCN(CCc2nc3c(-c4c(Cl)c(OC)cc(OC)c4Cl)cc4cnc(NC)nc4n3n2)CC1 [Compound 124, 1-(4-(2-(4-(2,6-dichloro-3,5-dimethoxyphenyl)-8-(methylamino)-[1,2,4]triazolo[1′,5′:1,6]pyrido[2,3-d]pyrimidin-2-yl)ethyl)piperazin-1-yl)prop-2-en-1-one]",
10 to 100,"C=CC(=O)N1CCN(Cc2nc3c(-c4cc(OC)cc(OC)c4Cl)cc4cnc(NC)nc4n3n2)CC1 [Compound 117, 1-(4-((4-(2-chloro-3,5-dimethoxyphenyl)-8-(methylamino)-[1,2,4]triazolo[1′,5′:1,6]pyrido[2,3-d]pyrimidin-2-yl)methyl)piperazin-1-yl)prop-2-en-1-one]",
1 to 10,"COc1cc(OC)c(Cl)c(-c2cc3cnc(Nc4cccc(N5CCN6CCC[C@@H]6C5)c4)nc3n3cnnc23)c1 [Compound 38, (R)-6-(2-chloro-3,5-dimethoxyphenyl)-N-(3-(hexahydropyrrolo[1,2-a]pyrazin-2(1H)-yl)phenyl)-[1,2,4]triazolo[4′,3′:1,6]pyrido[2,3-d]pyrimidin-2-amine]",

Structure (SMILES),IC50 (NCI-H1581 cells; [1]) [nM],other results
"COc1cc(OC)c(Cl)c(-c2cc3cnc(Nc4ccc(N5CC6CCC(C5)N6C)cc4)nc3n3cnnc23)c1 [Compound 23, 6-(2-chloro-3,5-dimethoxyphenyl)-N-(4-(8-methyl-3,8-diazabicyclo[3.2.1]octan-3-yl)phenyl)-[1,2,4]triazolo[4′,3′:1,6]pyrido[2,3-d]pyrimidin-2-amine]",< 1,IC50 (FGFR1): < 1 nM
